# In patent US20230133504A1, “METHOD OF TREATING GRAFT-VERSUS-HOST DISEASE” (REGENTS OF THE UNIVERSITY OF MICHIGAN, priority 2021, published 2023):
# How the values were obtained:
# [1] = test system: acute GVHD in BALB/c recipient mice; assay: acute GVHD model, C57BL/6 (H-2Kb) into BALB/c (H-2Kd) MHC mismatch bone marrow transplantation; type: in vivo, mouse; details: for survival: allogeneic recipients, 25 mg/kg i.p., p<0.001
# Procedure: FIGS. 1A-1C. Compound No. 36 treatment of acute GVHD model. BALB/c recipient mice on day 0 received 5×10^6 of bone marrow cells and 1×10^6 of purified splenic T cells from allogeneic C57BL/6 donor or syngeneic BALB/c donor following lethal irradiation with 800 rads on day −1. Recipients received intraperitoneal injections of 25 mg/kg of Compound No. 36 or vector starting on day −1, then three times weekly, from day −1 to day 21. Mice were monitored […]. […] Data in *, P<0.05; **, P<0.01. Syn—syngenic; Allo—allogeneic.
# To determine whether Compound No. 36 affects established parameters of acute GVHD, a well-established C57BL/6 (H-2Kb) into a BALB/c (H-2Kd) major histocompatibility complex (MHC) mismatch model was used. On day 0, BALB/c recipient mice received 5×10^6 of bone marrow cells and 1×10^6 of purified splenic T cells from allogeneic C57BL/6 donor or syngeneic BALB/c donor following lethal irradiation with 800 centiGray (units of radiation) on day −1. Recipients received intraperitoneal injections of 25 mg/kg every other day of Compound No. 36 or vector from day −1 to day 21. Mice were monitored daily for survival and weekly for GVHD score.
# [2] = test system: small intestinal organoids; assay: small intestinal organoids culture in vitro (GFP-Lgr5 transgenic mouse crypts); type: cell-based
# Procedure: FIGS. 3A-3D display the effect of Compound No. 36 on intestinal organoids culture in vitro. Intestinal organoids were established from culture of small intestinal crypts in GFP-Lgr5 transgene B6 mice. 3-5 passages of organoids were used to test the effect of Compound No. 36 in vitro. After dissociation of organoids, 100 crypts per well mixed with Matrigel-culture medium were plated in 24-well plate. After the Matrigel polymerized, 500 μL of culture medium with different concentrations of Compound No. 36 or vector were added to each well. The growth of the organoids was checked daily. Three days after coculture, organoid numbers and budding numbers were counted under the microscope and were photographed (FIG. 3A). Then, organoids were mechanically disrupted and dissociated into single cells with TrypLE Express. Cells were stained with anti-CD326, annexin V, and 7-AAD to analyze GFP-Lgr5^hi cells apoptosis by flow cytometry (FIGS. 3B-3D).
# To further determine whether Compound No. 36 has any direct GVHD organ (e.g., GI tract) toxicity or conversely, a regenerative effects, in the context of BMT, various concentrations of Compound No. 36 was cocultured with established small intestinal organoids, in which the intestine crypts were from the GFP-Leucine-rich repeat-containing G protein-coupled receptor 5 (Lgr5) transgenic mouse strain. Intestinal organoids were established from culture of small intestinal crypts in GFP-Lgr5 transgene B6 mice. 3-5 passages of organoids were used to test the effect of Compound No. 36 in vitro. After dissociation of organoids, 100 crypts per well mixed with Matrigel-culture medium were plated in 24-well plate. After the Matrigel polymerized, 500 μL of culture medium with different concentrations of Compound No. 36 or vector were added to each well. Orgonoid growth was assessed daily. Three days after coculture, organoid numbers and budding numbers were counted under the microscope and were photographed (FIG. 3A). […] Organoids were then mechanically disrupted and dissociated into single cells with TrypLE Express. […]
# [3] = test system: A20 mouse BALB/c lymphoma cell line in BALB/c recipient mice; assay: graft-versus tumor (GVT): acute GVHD model challenged with A20 tumor cells; type: in vivo
# Source text: FIGS. 2A-2C. Compound No. 36 treatment of acute GVHD model challenged with A20 tumor cells. Using the same method as described in FIGS. 1A-1C, BALB/c recipient mice underwent major histocompatibility complex (MHC) major mismatch allogeneic bone marrow transplantation (BMT) with C57BL/6 donor or with BALB/c donor as syngeneic control. BALB/c recipient mice on day 0 received 5×10^6 of bone marrow cells and 1×10^6 of purified splenic T cells with or without 0.5×10^6 A20 cells inoculum. As indicated here, recipients received intraperitoneal injections of 25 mg/kg of Compound No. 36 or vector starting on day −1, then three time weekly, from day −1 to day 21. Mice were monitored weekly for survival and GVHD score. FIG. 2A indicates body weight changes of animals measured weekly.
# Data in *, P<0.05; **, P<0.01. Syn—syngenic; Allo—allogeneic.
# As GVHD is tightly linked to the graft-versus tumor (GVT) response, testing was undertaken to determine whether Compound No. 36 treatment reduces the effect of GVT in the same mouse model as for GVHD (Example 1). To that end, a mouse BALB/c lymphoma cell line, A20 (0.5×10^6), thus syngeneic to the recipients, was incorporated to the bone marrow transplantation (BMT) cell inoculum on day 0. Recipients received the same doses of Compound No. 36 or vector from day −1 to day 21 as the above model. Syngeneic recipients of BALB/c to BALB/c were also setup with or without A20 cell inoculum and injected the same doses of Compound No. 36 or vector. Syngeneic recipients challenged with A20 cells got systemic tumor infiltration (lower-limb paralysis, hepatosplenomegaly) and 100% of recipients died within 3 weeks after BMT without Compound No. 36 treatment (FIG. 2A and FIG. 2B).
structure (smiles),measurement,setting,value
"NC(=O)CC[C@H](NC(=O)[C@@H]1CC[C@@H]2CCN(C(=O)CCCCCC#Cc3cccc4c3CN(C3CCC(=O)NC3=O)C4=O)C[C@H](NC(=O)c3cc4cc(C(F)(F)P(=O)(O)O)ccc4[nH]3)C(=O)N21)C(=O)NC(c1ccccc1)c1ccccc1 (stereo partly drawn) [Compound No. 36, ((2-(((5S,8S,10aR)-8-(((S)-5-amino-1-(benzhydrylamino)-1,5-dioxopentan-2-yl)carbamoyl)-3-(8-(2-(2,6-dioxopiperidin-3-yl)-1-oxoisoindolin-4-yl)oct-7-ynoyl)-6-oxodecahydropyrrolo[1,2-a][1,5]diazocin-5-yl)carbamoyl)-1H-indol-5-yl)difluoromethyl)phosphonic acid]",acute GVHD severity (body weight loss and clinical GVHD scores),"[1]; allogeneic C57BL/6 to BALB/c, 25 mg/kg intraperitoneal every other day, day -1 to day 21, vs. vector",significantly reduce acute GVHD severity by reducing body weight loss and clinical GVHD scores
same,survival,"[1]; day 50, vector 50%",100%
same,survival,"[1]; day 100, vector 12%",53%
same,signs of toxicity or GVHD,"[1]; syngeneic recipients BALB/c to BALB/c, same doses (25 mg/kg i.p.)",did not present any signs of toxicity
same,survival rate,"[1]; syngeneic recipients BALB/c to BALB/c, same doses, until the end point",100%
same,toxicity on intestine,[2]; conclusion from the organoid data,does not have significant toxicity on intestine
same,organoid numbers and budding numbers,"[2]; three days after coculture, series concentrations",No significant changes were observed
same,Lgr5-GFP+ stem cells and Annexin V expression (apoptosis) by flow cytometry,"[2]; three days after coculture, vs. vector group",no differences between vector group and Compound No. 36 treatment group were observed
same,tumor-related death,"[3]; allogeneic GVHD model challenged with A20 cells, by 6 weeks after BMT",no tumor-related death was observed
same,mice survival,"[3]; allogeneic GVHD model challenged with A20 cells, by 6 weeks after BMT, vector 50%, p<0.05",100%
same,GVHD severity,"[3]; allogeneic GVHD model challenged with A20 cells, by 6 weeks after BMT, vs. vector",significantly reduced GVHD severity
same,survival time,"[3]; syngeneic recipients receiving A20 cells (0.5x10^6), 25 mg/kg i.p. day -1 to day 21, vs. no treatment (100% died within 3 weeks)",significantly extended the survival time
